According to patent publication US20250197641A1, “OPTICAL ABSORBENT” (priority 2023, published 2025):

How the values were obtained:
Assay type in all cases: physicochemical
[1] = Absorption maximum measurement; settings: chloroform, about 10^-5 M
Procedure: The maximum absorption was evaluated by a conventional method. Specifically, the sample was dissolved in chloroform solvent at a concentration of about 10^−5 M and then evaluated using measuring equipment (Agilent, Varian Cary 4000).

[2] = Pyrolysis temperature (Td 5%) analysis by TGA; settings: 25-800° C., 10° C./min, N2
Procedure: The Td 5% is a value obtained through TGA (Thermogravimetric Analysis) analysis. It is the value (Td 5%) at a weight loss of 5% confirmed under the conditions of a temperature range of 25° C. to 800° C., a temperature increase rate of 10° C./min, and a nitrogen (N2) atmosphere of 60 cm^3/min.
Thermogravimetric Analysis (TGA) of the chemical compound was performed by using Scinco's TGA N-1000 equipment. The analysis was performed by using approximately 3 mg of sample (chemical compound) and the analysis was conducted under conditions of a temperature range of 25° C. to 800° C., a temperature increase rate of 10° C./min, and nitrogen (N2) atmosphere of 60 cm^3/min. The value at […] (Td 5%) was used as the Td decomposition temperature.

[3] = Transmittance of absorption membrane before and after reliability evaluation (Test Example 1); settings: for 425~465 nm Tave, Δ / 425~465 nm Tmin, Δ / 466~480 nm Tave, Δ / 466~480 nm Tmin, Δ / 480~560 nm Tave, Δ / λmax Tmax (transmittance at the absorption maximum), Δ: change before/after 85° C.; for 425~465 nm Tave, Δ / 425~465 nm Tmin, Δ / 466~480 nm Tave, Δ / 466~480 nm Tmin, Δ / 480~560 nm Tave, Δ / λmax Tmax (transmittance at the absorption maximum), Δ / 425~465 nm Tave, A / 425~465 nm Tmin, A / 466~480 nm Tave, A / 466~480 nm Tmin, A / 480~560 nm Tave, A: 85% RH, 120 hours; for 425~465 nm Tave, B / 425~465 nm Tmin, B / 466~480 nm Tave, B / 466~480 nm Tmin, B / 480~560 nm Tave, B: silicone resin membrane about 6 μm, before reliability evaluation; for 425~465 nm Tave, A / 425~465 nm Tmin, A / 466~480 nm Tave, A / 466~480 nm Tmin, A / 480~560 nm Tave, A: silicone resin membrane, after 85° C.
Procedure: The transmittance spectrum was measured using a spectrophotometer (Manufacturer: Perkinelmer, Product Name: Lambda 750 Spectrophotometer) on a specimen obtained by cutting the measurement object (e.g., an absorption membrane) so that the width and height were 10 mm and 10 mm, respectively. The transmittance spectrum was measured for each wavelength according to the equipment manual. The specimen was placed on a straight line between a measuring beam of the spectrophotometer and a detector and the transmittance spectrum was confirmed by setting the incident angle of the measuring beam to 0°. The incident angle of 0° is a direction substantially parallel to the surface normal direction of the specimen. The average transmittance within a certain wavelength range in the transmittance spectrum is the result of measuring the transmittance at each wavelength while increasing the wavelength by 1 nm starting from the shortest wavelength in the wavelength range, and then calculating the arithmetic average of the measured transmittances. The maximum transmittance is the maximum transmittance among the transmittances measured while increasing the wavelength by 1 nm and the minimum transmittance is the minimum transmittance among the transmittances measured while increasing the wavelength by 1 nm. For example, the average transmittance within the wavelength range of 350 nm to 360 nm is the arithmetic mean of the transmittance measured at the wavelength of 350 nm, 351 nm, 352 nm, 353 nm, 354 nm, 355 nm, 356 nm, 357 nm, 358 nm, 359 nm, and 360 nm. The maximum transmittance within the wavelength range of 350 nm to 360 nm is the highest transmittance measured at wavelengths of 350 nm, 351 nm, 352 nm, 353 nm, 354 nm, 355 nm, 356 nm, 357 nm, 358 nm, 359 nm and 360 nm and the minimum transmittance within the wavelength range of 350 nm to 360 nm is the lowest transmittance among the transmittances measured at wavelengths of 350 nm, 351 nm, 352 nm, 353 nm, 354 nm, 355 nm, 356 nm, 357 nm, 358 nm, 359 nm, and 360 nm.
A coating solution was prepared by mixing silicone resin (Dow Chemical, RSN-0217), absorbent, and solvent (cyclohexanone) as resin components. The mixing ratio of the resin component, absorbent, and solvent was set to be 69.3:0.99:29.7 in weight ratio (resin:absorbent:solvent).
The coating solution was coated on a transparent substrate (a glass substrate manufactured by SCHOTT) and maintained at 140° C. for about 2 hours to form an absorption membrane with a thickness of about 6 μm.
Tables 2 and 3 below summarize the transmittance of the absorption membrane before and after reliability evaluation in the ultraviolet and near-infrared regions. The reliability evaluation is an evaluation of maintaining the absorption membrane at 85° C. and under 85% relative humidity condition for 120 hours. In Table 2, B refers to the result before performing the reliability evaluation and A refers to the result after performing the reliability evaluation. Additionally, in Table 2, λmax means the transmittance at the absorption maximum.
In Tables 2 and 3, Δ is the rate of change (%) of each characteristic before and after the reliability evaluation, calculated as 100×[…]/B, where […], B is the value indicated by B in Table 2. In Table 2, Tmax refers to the highest transmittance within the corresponding wavelength region, Tave refers to the average transmittance within the corresponding wavelength region, and Tmin refers to the minimum transmittance within the corresponding wavelength region.

[4] = Absorption spectra of absorption membrane before and after high temperature/high humidity evaluation (Test Example 2); settings: 85% relative humidity, 120 hours; for ΔA = 100×(Af−Ai)/Ai / Δλ = 100×(λf−λi)λi: 85° C.; for Af, transmittance at the absorption maximum wavelength / λf, absorption maximum wavelength: absorption membrane after 85° C.; for Ai, transmittance at the absorption maximum wavelength / λi, absorption maximum wavelength: absorption membrane before 85° C.
Excerpt: FIGS. 4 to 6 are the absorption spectra of the absorption membranes prepared in Test Example 1 using the absorbents of Embodiments 1 to 3, respectively. FIGS. 7 to 9 are the absorption spectrum of the absorption membrane prepared in Test Example using the absorbents of Comparative Examples 1 to 3, respectively. In the FIGS., the spectra indicated before reliability is the result immediately after preparing the absorption membrane, and the spectra indicated after reliability is the result after high temperature/high humidity evaluation was performed on the absorption membrane. The high temperature/high humidity evaluation is an evaluation where the absorption membrane is maintained at a temperature of 85° C. under a relative humidity of 85% for 120 hours. In Tables 4 and 5, Af is the transmittance at the absorption maximum wavelength of the absorption membrane maintained at 85° C. under 85% relative humidity for 120 hours and λf is the absorption maximum wavelength for after case. Ai is the transmittance at the absorption maximum wavelength of the absorption membrane before being maintained at 85° C. under 85% relative humidity for 120 hours and λi is the absorption maximum wavelength for before case. In Tables 4 and 5, ΔA is a value calculated as 100×(Af−Ai)/Ai, and Δλ is a value calculated as 100×(λf−λi)λi.

[5] = Solubility of the absorbent in methylene chloride; settings: room temperature (about 25° C.)
Procedure: The solubility of the absorbent was evaluated. Solubility was determined based on the following criteria by evaluating the solubility of the absorbent in the solvent (MC, Methylene Chloride) at room temperature (about 25° C.).

Row | SMILES | Maximum Absorption Wavelength [1] [nm] | Td 5% [2] [°C] | 425~465 nm Tave, Δ [3] [%] | 425~465 nm Tmin, Δ [3] [%] | 466~480 nm Tave, Δ [3] [%] | 466~480 nm Tmin, Δ [3] [%] | 480~560 nm Tave, Δ [3] [%] | λmax Tmax (transmittance at the absorption maximum), Δ [3] [%] | 425~465 nm Tave, B [3] [%] | 425~465 nm Tmin, B [3] [%] | 466~480 nm Tave, B [3] [%] | 466~480 nm Tmin, B [3] [%] | 480~560 nm Tave, B [3] [%] | 425~465 nm Tave, A [3] [%] | 425~465 nm Tmin, A [3] [%] | 466~480 nm Tave, A [3] [%] | 466~480 nm Tmin, A [3] [%] | 480~560 nm Tave, A [3] [%] | ΔA = 100×(Af−Ai)/Ai [4] [%] | Δλ = 100×(λf−λi)λi [4] [%] | other results
1 | CC1(C)C(/C=C/C2=C(Cl)C(=C/C=C3\N(C[Si](C)(C)C)c4ccccc4C3(C)C)/CC2)=[N+](C[Si](C)(C)C)c2ccccc21 [Embodiment 3] | 817 | 216 | 0.1 | 0.1 | 0.1 | 0.1 | 0. | 0.8 | 87.8 | 86.8 | 89.4 | 88.1 | 91 | 87.9 | 87 | 89.5 | 88.2 | 91 | 6.7 | 0 | Af, transmittance at the absorption maximum wavelength [4]: 12.3%; λf, absorption maximum wavelength [4]: 823 nm; Ai, transmittance at the absorption maximum wavelength [4]: 11.5%; λi, absorption maximum wavelength [4]: 82. nm
2 | CC1(C)C(/C=C/C=C/C=C/C=C2\N(C[Si](C)(C)C)c3ccc4ccccc4c3C2(C)C)=[N+](C[Si](C)(C)C)c2ccc3ccccc3c21 [Embodiment 2] | 803 | 230 | 0.1 | 0.1 | 0 | 0.1 | 0 | 1.4 | 89.5 | 88.6 | 90.3 | 89.8 | 91.3 | 89.5 | 88.7 | 90.3 | 89.8 | 91.3 | 4.2 | 0 | Af, transmittance at the absorption maximum wavelength [4]: 34.9%; λf, absorption maximum wavelength [4]: 790 nm; Ai, transmittance at the absorption maximum wavelength [4]: 33.5%; λi, absorption maximum wavelength [4]: 790 nm
3 | CCCCN1\C(=C/C=C/C=C/C=C/C2=[N+](CCCC)c3ccccc3C2(C)C)C(C)(C)c2ccccc21 [Comparative Example 1] | 761 | 215 | 0.2 | 1.0 | −0.6 | −0.7 | −0.3 | 14.7 | 88.7 | 86.5 | 90.1 | 89.8 | 90.1 | 88.9 | 87.5 | 89.5 | 89.1 | 89.8 | 69.0 | −13 | Solubility [5]: A (When solubility is 1 mass % or more); Af, transmittance at the absorption maximum wavelength [4]: 36.0%; λf, absorption maximum wavelength [4]: 747 nm; Ai, transmittance at the absorption maximum wavelength [4]: 21.3%; λi, absorption maximum wavelength [4]: 748 nm
4 | CC1(C)C(/C=C/C=C/C=C/C=C2\N(C[Si](C)(C)C)c3ccccc3C2(C)C)=[N+](C[Si](C)(C)C)c2ccccc21 [Embodiment 1] | 763 | 231 | 0 | 0.1 | 0 | 0 | 0 | 0.8 | 89.7 | 87.9 | 91.1 | 90.7 | 91.4 | 89.8 | 88 | 91.1 | 90.7 | 91.4 | 6.6 | 0 | Af, transmittance at the absorption maximum wavelength [4]: 12.3%; λf, absorption maximum wavelength [4]: 758 nm; Ai, transmittance at the absorption maximum wavelength [4]: 11.5%; λi, absorption maximum wavelength [4]: 758 nm
